Columns and labels:
Type in all cases: functional
[1] = system: Adoxophyes orana; experiment: Larvicidal activity against second-instar larvae of Adoxophyes orana infested soybean seedling assessed as mortality at 20 ppm measured after 7 days; details: 168 h
[2] = system: Plutella xylostella; experiment: Larvicidal activity against second-instar larvae of Plutella xylostella (diamondback moth) infested raddish seedling assessed as mortality at 50 ppm sprayed 2 hr prior to infestation measured after 4 days
[3] = system: Spodoptera litura; experiment: Larvicidal activity against third-instar larvae of Spodoptera litura infested in soybean seedling assessed as mortality at 2 ppm sprayed 6 days prior to infestation measured after 5 days
[4] = system: Spodoptera litura; experiment: Larvicidal activity against third-instar larvae of Spodoptera litura infested in soybean seedling assessed as mortality at 2 ppm sprayed 1 day prior to infestation measured after 5 days
[5] = system: Plutella xylostella; experiment: Larvicidal activity against second-instar larvae of Plutella xylostella (diamondback moth) infested raddish seedling assessed as mortality at 3.3 ppm sprayed 2 hr prior to infestation measured after 4 days
[6] = system: Adoxophyes orana; experiment: Larvicidal activity against second-instar larvae of Adoxophyes orana infested soybean seedling assessed as mortality at 5 ppm measured after 7 days; details: 168 h

| Structure (SMILES) | mortality at 20 ppm [1] [%] | mortality at 50 ppm [2] [%] | mortality at 2 ppm [3] [%] | mortality at 2 ppm [4] [%] | mortality at 3.3 ppm [5] [%] | mortality at 5 ppm [6] [%] |
| --- | --- | --- | --- | --- | --- | --- |
| O=C(NC(=O)c1c(F)cccc1F)Nc1ccc(Cl)cc1 [DIFLUBENZURON] | 20 | 20 | 15 | 20 | – | – |
| O=C(NC(=O)c1c(F)cccc1F)Nc1ccc(SC(F)(F)C(F)F)c(Cl)c1 | 65 | – | 100 | 100 | 100 | – |
| O=C(NC(=O)c1c(F)cccc1F)Nc1ccc(S(=O)(=O)C(F)(F)C(F)F)c(Cl)c1 | – | – | 35 | 60 | 80 | 100 |
| O=C(NC(=O)c1c(F)cccc1F)Nc1ccc(S(=O)(=O)C(F)(F)C(F)F)c(Cl)c1Cl | – | – | 100 | 100 | 95 | 100 |
| Cc1c(NC(=O)NC(=O)c2c(F)cccc2F)ccc([S+]([O-])C(F)(F)C(F)F)c1C (centres undefined) | – | – | 100 | 100 | 100 | 90 |
| O=C(NC(=O)c1c(F)cccc1F)Nc1ccc(S(=O)(=O)C(F)(F)C(F)F)cc1Cl | – | – | 100 | 100 | 95 | 100 |
